pIC50: −log10 of the molar value. Values joined by “and” are separate entries in the source; they are usually repeats but may differ in a detail not shown here. Identical values can stand only once. Each block holds one molecule with its values, some of them ahead of it.
Key:
[1] = biological target: T1, ETA (rabbit renal artery vascular smooth muscle cells) (Oryctolagus cuniculus, UniProt A5A8K3); test: Endothelin receptor binding assay-A (ERBA-A), intact cell binding of [125I]-ET-1; conditions: for pIC50: rabbit renal artery vascular smooth muscle cells, [125I]-ET-1 25 pM
T1 construct: The cells used were rabbit renal artery vascular smooth muscle cells; endogenous in cells; host or cells: rabbit renal artery vascular smooth muscle cells
T1 sequence (A5A8K3 21-427): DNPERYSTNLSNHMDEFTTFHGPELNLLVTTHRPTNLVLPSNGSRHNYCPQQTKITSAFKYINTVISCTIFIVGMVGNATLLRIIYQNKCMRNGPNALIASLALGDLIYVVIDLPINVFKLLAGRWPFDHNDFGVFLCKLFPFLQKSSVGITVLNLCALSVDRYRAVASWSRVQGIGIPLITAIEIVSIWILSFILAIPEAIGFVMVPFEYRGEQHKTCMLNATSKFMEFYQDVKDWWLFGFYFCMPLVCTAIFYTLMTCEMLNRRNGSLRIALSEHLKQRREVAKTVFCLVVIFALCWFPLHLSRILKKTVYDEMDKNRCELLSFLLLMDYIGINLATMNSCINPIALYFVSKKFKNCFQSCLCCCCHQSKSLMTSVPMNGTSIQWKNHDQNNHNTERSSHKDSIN
Experimental: (§1) The compounds of Formula I are valuable antagonists of endothelin. […] Compounds of Formula I were tested for their ability to inhibit [^125 I]-ET-1([^125 I]-Endothelin-1) binding in a receptor assay according to the following procedures Doherty, A. M., et al, J. Cardiovascul. Pharmacol. 17(Suppl 7):S59-61 (1991) and Doherty, A. M., et al, Bio. Org. Med. Chem. Lett. in press (1992):
ENDOTHELIN RECEPTOR BINDING ASSAY-A (ERBA-A) INTACT CELL BINDING OF [^125 I]-ET-1
The cells used were rabbit renal artery vascular smooth muscle cells grown in a 48-well dish (1 cm^2) (confluent cells).
The growth media was Dulbeccos Modified Eagles/Ham's F12 which contained 10% fetal bovine serum and antibiotics (penicillin/streptomycin/fungizone).
The assay buffer was a medium 199 containing Hanks salts and 25 mM Hepes buffer (Gibco 380-2350AJ), supplemented with penicillin/streptomycin/fungizone (0.5%) and bovine serum albumin (1 mg/mL).
Amersham radioiodinated endothelin-1 [^125 I]-ET-1 was used at final concentration of 20,000 cpm/0.25 mL (25 pM).
Second, remove the assay buffers, place the dish on ice, and add 150 μL of cold assay buffer described above to each well. Third, add 50 μL each of cold [^125 I]-ET-1 and competing ligand to the solution (at the same time if possible). Next, place dish in a 37° C. water bath for about 2 hours and gently agitate the dish every 15 minutes. Discard the radioactive incubation mixture in the sink and wash wells three times with […] of cold phosphate buffered saline. Last, add […] of 0.25 molar sodium hydroxide, agitate for 1 hour on a rotator, and then transfer the sodium hydroxide extract to gamma counting tubes and count the radioactivity.

[2] = biological target: T2, ETB (rat cerebellar membranes) (Rattus norvegicus, UniProt P21451); test: Endothelin receptor binding assay-B (ERBA-B), [125I]-ET-1 binding in rat cerebellar membranes; conditions: for Selectivity ETA / ETB from Table I: ERBA-A versus ERBA-B; for pIC50: rat cerebellar membranes, [125I]-ET-1 25 pM
T2 construct: thaw one aliquot of frozen rat cerebellar membranes; from tissue; host or cells: rat cerebellar membranes
T2 sequence (P21451 27-442): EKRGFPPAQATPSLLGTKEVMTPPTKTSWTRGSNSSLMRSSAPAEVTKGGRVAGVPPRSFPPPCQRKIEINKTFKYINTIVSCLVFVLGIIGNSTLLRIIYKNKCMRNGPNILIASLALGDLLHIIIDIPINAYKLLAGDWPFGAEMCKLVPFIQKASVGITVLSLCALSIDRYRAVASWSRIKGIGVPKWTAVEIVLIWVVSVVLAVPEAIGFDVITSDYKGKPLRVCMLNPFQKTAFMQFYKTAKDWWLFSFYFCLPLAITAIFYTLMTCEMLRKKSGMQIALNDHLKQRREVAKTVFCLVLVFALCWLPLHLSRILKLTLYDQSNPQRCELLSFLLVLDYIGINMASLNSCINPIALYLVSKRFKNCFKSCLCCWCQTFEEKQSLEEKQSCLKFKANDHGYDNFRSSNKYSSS
Experimental: as §1
ENDOTHELIN RECEPTOR BINDING ASSAY-B (ERBA-B) [^125 I]-ET-1 BINDING IN RAT CEREBELLAR MEMBRANES
The tissue is made up of 20 mM tris(hydroxy-methyl)aminomethane hydrochloride (Trizma) buffer, 2 mM ethylenediaminetetra acetate, 100 μM phenylmethylsulfonyl fluoride.
First, thaw one aliquot of frozen rat cerebellar membranes (2 mg protein in 0.5 mL). Next, add 0.5 mL membrane aliquot to 4.5 mL cold tissue buffer, polytron at 7,500 revolutions per minute for 10 seconds. Finally, dilute tissue suspension 1/100 (0.1 mL suspension+9.9 mL tissue buffer), polytron again, and place ice.
Medium 199 with Hank's salts plus 25 mM Hepes+1 mg/mL bovine serum albumin.
Amersham [^125 I]-ET-1 (aliquots of 2×10^6 cpm per […] aliquot of [^125 I]-ET-1 with 5.2 mL dilution buffer, place on ice until use (final concentration will be 20,000 cpm per tube, or 25 pM).
Add 50 μL each of cold [^125 ]-ET-1 and competing ligand to tubes on ice. Mix in 150 μL of tissue to each tube, vortex briefly, then tap to force all liquids to bottom (total assay volume=250 μL). Then place the tubes in a 37° C. water bath for 2 hours.
Add 2.5 mL cold wash buffer (50 mM Trizma buffer) to each tube, filter, and then wash tube with additional 2.5 mL wash buffer and add to filter. Finally, wash filters with an additional 2.5 mL of cold wash buffer.
Count filters for radioactivity in gamma counter.

[3] = biological target: endothelin receptor (Human Placenta); test: [125I]-ET-1 receptor binding, Human Placenta
Experimental: as §1, with “Org.” for “Org. Med. Chem. Lett. in press (1992):”

[4] = biological target: endothelin receptor (Rat Heart); test: [125I]-ET-1 receptor binding, Rat Heart
Experimental: as §1, with “Org.” for “Org. Med. Chem. Lett. in press (1992):”

Compound: C[C@H]1CCCC[C@@H]1OC(=O)N[C@](C)(Cc1c[nH]c2ccccc12)C(=O)N[C@H](CC(=O)O)Cc1ccccc1 (relative stereo) [Compound 1, (1S-trans)-N-[α-methyl-N-[[(2-methyl-cyclohexyl)-oxy]carbonyl]-D-tryptophyl]-L-3-(phenylmethyl)-β-alanine]
IC50 [3]: 0.72 µM
IC50 [4]: 9.25 µM
pIC50 [1]: 4.34
pIC50 [2]: 5.82

Compound: CC(Cc1c[nH]c2ccccc12)(NC(=O)OC1C2CC3CC(C2)CC1C3)C(=O)NC(CSCC(=O)O)Cc1ccccc1 (stereo not drawn) [Compound 2, [R-(R*,S*)]-[[2-[[3-(1H-indol-3-yl)-2-methyl-1-oxo-2-[[(tricyclo[3.3.1.1^3,7]dec-2-yloxy)carbonyl]-amino]propyl]amino]-3-phenylpropyl]thio]acetic acid]
IC50 [3]: 9.88 µM
IC50 [4]: 9.06 µM

Compound: CC(Cc1c[nH]c2ccccc12)(NC(=O)OC1C2CC3CC(C2)CC1C3)C(=O)NC(CC(=O)O)Cc1ccccc1 (stereo not drawn) [Compound 3, [R-(R*,S*)]-β-[[3-(1H-indol-3-yl)-2-methyl-1-oxo-2-[[(tricyclo[3.3.1.1^3,7]dec-2-yloxy)carbonyl]-amino]propyl]amino]benzenebutanoic acid]
IC50 [3]: 0.96 µM
IC50 [4]: 7.91 µM

Compound: C[C@](Cc1c[nH]c2ccccc12)(NC(=O)OC1C2CC3CC(C2)CC1C3)C(=O)NC(CC(=O)O)Cc1ccccc1 (stereo partly drawn) [Compound 5, N-[α-methyl-N-[(tricyclo[3.3.1.1^3,7]dec-2-yloxy)carbonyl]-D-tryptophyl]-D-3-(phenylmethyl)-β-alanine]
IC50 [3]: 3.84 µM
IC50 [4]: 34.5 µM

Compound: CC(Cc1c[nH]c2ccccc12)(NC(=O)OC1C2CC3CC(C2)CC1C3)C(=O)NC(C=CC(=O)O)Cc1ccccc1 (stereo not drawn) [Compound 6, [R-[R*,S*-(E)]]-4-[[3-(1H-indol-3-yl)-2-methyl-1-oxo-2-[[(tricyclo[3.3.1.1^3,7]dec-2-yloxy)carbonyl]-amino]propyl]amino]-5-phenyl-2-pentenoic acid]
pIC50 [2]: 6.06

Compound: CC(Cc1c[nH]c2ccccc12)(NC(=O)OC1C2CC3CC(C2)CC1C3)C(=O)NC(CCC(=O)O)Cc1ccccc1 (stereo not drawn) [Compound 7, [R-(R*,S*)]-γ-[[3-(1H-indol-3-yl)-2-methyl-1-oxo-2-[[(tricyclo[3.3.1.1^3,7]dec-2-yloxy)carbonyl]-amino]propyl]amino]benzenepentanoic acid]
pIC50 [2]: 6.06

Compound: C[C@](Cc1c[nH]c2ccccc12)(NC(=O)OC1C2CC3CC(C2)CC1C3)C(=O)N(CCC(=O)O)CCc1ccccc1 (stereo partly drawn) [Compound 8, (R)-3-[[3-(1H-indol-3-yl) -2-methyl-1-oxo-2-[[(tricyclo[3.3.1.1^3,7]dec-2-yloxy)carbonyl]amino]-propyl](2-phenylethyl)amino]propanoic acid]
inhibition at 10 µM [1]: 25%
pIC50 [2]: 6.04 and 5.74

Compound: C[C@](Cc1c[nH]c2ccccc12)(NC(=O)OC1C2CC3CC(C2)CC1C3)C(=O)NC(CC(=O)O)Cc1ccc(N)cc1 (stereo partly drawn) [Compound 9, L-3-[(4-aminophenyl)methyl]-N-[α-methyl-N-[(tricyclo[3.3.1.1^3,7]dec-2-yloxy)carbonyl]-D-tryptophyl]-β-alanine]
ERBA-A % inhibition at 10 μM [1]: 33.5%
ERBA-B % inhibition at 10 μM [2]: 9.4%

Compound: Cc1[nH]c2ccccc2c1C[C@@H](NC(=O)OC1C2CC3CC(C2)CC1C3)C(=O)N[C@@H](Cc1ccccc1)C(=O)NCC(=O)O (stereo partly drawn) [Compound 10, N-[2-methyl-N-[(tricyclo[3.3.1.1^3,7]dec-2-yloxy)carbonyl]-D-tryptophyl]-L-phenylalanyl-glycine]
inhibition at 10 µM [1]: 45%
inhibition at 10 µM [2]: 39.7%

Next, values leading:

inhibition at 10 µM [1]: -0.2%
inhibition at 10 µM [2]: 72.3%
Selectivity ETA / ETB from Table I [2]: selective for ETB
pIC50 [2]: 5.40
Compound: CC(Cc1c[nH]c2ccccc12)(NC(=O)OC1C2CC3CC(C2)CC1C3)C(=O)N(CCc1ccccc1)CC(=O)O (racemic) [Compound 13, (±)-N-[3-(1H-indol-3-yl)-2-methyl-1-oxo-2-[[(tricyclo[3.3.1.1^3,7]dec-2-yloxy)carbonyl]amino]-propyl]-N-(2-phenylethyl)glycine]

ERBA-A % inhibition at 10 μM [1]: 47.7%
ERBA-B % inhibition at 10 μM [2]: 51.4%
Compound: CC(Cc1c[nH]c2ccccc12)(NC(=O)OC1C2CC3CC(C2)CC1C3)C(=O)NC(CC(=O)O)Cc1ccc([N+](=O)[O-])cc1 (stereo not drawn) [Compound 11, [R-(R*,S*)]-β-[[3-(1H-indol-3-yl)-2-methyl-1-oxo-2-[[(tricyclo[3.3.1.1^3,7]dec-2-yloxy)carbonyl]-amino]propyl]amino]-4-nitrobenzenebutanoicacid]

inhibition at 10 µM [1]: 4.1%
inhibition at 10 µM [2]: 86%
Selectivity ETA / ETB from Table I [2]: selective for ETB
pIC50 [2]: 5.74
Compound: C[C@](Cc1c[nH]c2ccccc12)(NC(=O)OC1C2CC3CC(C2)CC1C3)C(=O)N(CCc1ccccc1)CC(=O)O (stereo partly drawn) [Compound 12, N-[α-methyl-N-[(tricyclo[3.3.1.1^3,7]dec-2-yloxy)carbonyl]-D-tryptophyl]-N-(2-phenylethyl)-glycine]

ERBA-A % inhibition at 10 μM [1]: 54.3%
ERBA-B % inhibition at 10 μM [2]: 39.8%
Compound: CC(Cc1c[nH]c2ccccc12)(NC(=O)OC1C2CC3CC(C2)CC1C3)C(=O)NC(C=CC=CC(=O)O)Cc1ccccc1 (stereo not drawn) [Compound 14, [R-[R*,S*-(E,E)]]-6-[[3-(1H-indol-3-yl)-2-methyl-1-oxo-2-[[(tricyclo[3.3.1.1^3,7]dec-2-yloxy)-carbonyl]amino]propyl]amino]-7-phenyl-2,4-heptadienoic acid]

ERBA-A % inhibition at 10 μM [1]: 51.6%
ERBA-B % inhibition at 10 μM [2]: 36.5%
Compound: CC(Cc1c[nH]c2ccccc12)(NC(=O)OC1C2CC3CC(C2)CC1C3)C(=O)NC(CCCCC(=O)O)Cc1ccccc1 (stereo not drawn) [Compound 15, [R-(R*,S*)]-ε-[[3-(1H-indol-3-yl)-2-methyl-1-oxo-2-[[(tricyclo[3.3.1.1^3,7]dec-2-yloxy)carbonyl]-amino]propyl]amino]benzeneheptanoic acid]

pIC50 [1]: 5.82
pIC50 [2]: < 5.00
Compound: C[C@](Cc1c[nH]c2ccccc12)(NC(=O)NC1CCCCC1)C(=O)O [Compound 16, N-[(cyclohexylamino)carbonyl]-α-methyl-D-tryptophan]

— patent publication US5922681A, “Endothelin antagonists” (Warner-Lambert Company, priority 1992, dated 1999)
